The results in this text go back to BindingDB's records for patent US10188615 (ACUCELA INC., 2019).

Each structure is given as a SMILES string.

As usually defined, the IC50 is the concentration that gives 50% inhibition.

For the test, the target named is T1, Retinoid isomerohydrolase (Human, UniProt Q16518).
T1 sequence (Q16518 whole entry): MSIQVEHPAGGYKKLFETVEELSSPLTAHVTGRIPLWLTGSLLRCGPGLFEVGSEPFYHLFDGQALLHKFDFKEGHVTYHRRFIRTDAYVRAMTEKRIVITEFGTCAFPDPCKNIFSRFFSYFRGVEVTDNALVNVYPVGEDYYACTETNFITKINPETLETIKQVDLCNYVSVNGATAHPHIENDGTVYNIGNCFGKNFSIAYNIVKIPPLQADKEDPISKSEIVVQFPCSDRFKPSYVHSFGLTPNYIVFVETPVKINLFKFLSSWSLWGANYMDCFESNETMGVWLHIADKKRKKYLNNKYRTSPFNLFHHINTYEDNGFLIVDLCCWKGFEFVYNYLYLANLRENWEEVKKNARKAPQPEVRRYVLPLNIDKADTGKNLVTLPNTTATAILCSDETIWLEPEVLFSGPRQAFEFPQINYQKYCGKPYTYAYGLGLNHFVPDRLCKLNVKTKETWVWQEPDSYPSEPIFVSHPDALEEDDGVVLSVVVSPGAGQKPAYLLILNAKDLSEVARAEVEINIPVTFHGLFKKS
The test is described as follows: In Vitro Isomerase Inhibition Assay.
As to `NC[C@@H](O)[C@@H](O)c1cccc(OCC2CCCCC2)c1` [US10188615, Example 180], the IC50 result was “in the range around 55 nM”.
Next, `CNCCC(=O)c1cccc(OCC2CCCCC2)c1` [US10188615, Example 181]: “in the range around 550 nM”; `NCCCCc1cccc(OCC2CCCCC2)c1` [US10188615, Example 184]: “in the range around 5500 nM”.
As to `CNCCC(O)c1cccc(OCC2CCCCC2)c1` (centres undefined) [US10188615, Example 187], the IC50 result was “in the range around 55 nM”.
Next, `N=C(N)NCc1cccc(OCC2CCCCC2)c1` [US10188615, Example 190]: “in the range around 5500 nM”; `NCCC(F)c1cccc(OCC2CCCCC2)c1` (centres undefined) [US10188615, Example 193]: “in the range around 55 nM”; `NCCC#Cc1cccc(OCC2CCCCC2)c1` [US10188615, Example 196]: “in the range around 5500 nM”.
Next, `NCC#Cc1cccc(OCC2CCCCC2)c1` [US10188615, Example 197]: “in the range around 55 nM”.
As for `NC/C=C/c1cc(F)cc(OCC2CCCCC2)c1` [US10188615, Example 198], the entry is “in the range around 550 nM”.
